Data published in BindingDB's records for patent US10023557 (LIFESCI PHARMACEUTICALS, INC., 2018).

Molecular target: Plasma kallikrein (Homo sapiens, UniProt P03952)
Assay: In Vitro Enzyme Inhibition of hPK
Conditions: pH 7.5
Experimental: A 10 mM solution of the test compound was made in DMSO. […] A control tube containing only DMSO is included. […] 50 μL was removed from this mixture and placed into duplicate wells on a Microfluor 1Black U-bottom microtiter plate (Thermo Scientific). This plate was incubated for 5 minutes at 37° C. To each well, 50 μL of pre-warmed 2×PFR-AMC was added to start the enzymatic reaction. Cleavage of PFR-AMC was monitored in a Biotek Synergy H4 reader set at 37° C. Readings are taken every 43 seconds for 1 hour. […] The IC50 is calculated using the Gen5 (Biotek Instruments).

Sequence of Plasma kallikrein (P03952 20-390 limits assumed): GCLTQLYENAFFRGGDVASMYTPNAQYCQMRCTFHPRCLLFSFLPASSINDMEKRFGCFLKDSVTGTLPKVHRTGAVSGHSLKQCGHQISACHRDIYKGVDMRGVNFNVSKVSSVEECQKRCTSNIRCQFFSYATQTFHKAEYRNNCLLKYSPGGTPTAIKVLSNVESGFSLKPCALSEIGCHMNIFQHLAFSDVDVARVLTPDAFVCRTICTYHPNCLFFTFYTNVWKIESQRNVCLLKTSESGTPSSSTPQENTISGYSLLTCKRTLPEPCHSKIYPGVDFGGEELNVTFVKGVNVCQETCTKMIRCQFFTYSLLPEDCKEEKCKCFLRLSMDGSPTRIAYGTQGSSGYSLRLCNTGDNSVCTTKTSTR
Sequence of Plasma kallikrein (P03952 391-638 limits assumed): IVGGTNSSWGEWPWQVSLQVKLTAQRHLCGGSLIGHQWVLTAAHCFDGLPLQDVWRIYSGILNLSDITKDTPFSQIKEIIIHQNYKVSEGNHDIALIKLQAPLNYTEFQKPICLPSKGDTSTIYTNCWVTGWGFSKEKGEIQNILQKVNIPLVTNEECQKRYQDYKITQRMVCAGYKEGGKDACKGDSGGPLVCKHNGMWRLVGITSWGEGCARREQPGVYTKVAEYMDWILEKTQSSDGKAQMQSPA

IC50: < 100 nM
SMILES: Cc1nc(N)ccc1CNC(=O)c1ccnc(CC2=CC3C=C(Cl)C=NC3C=C2)c1 (stereo unspecified) [US10023557, Example 39]
